Results from patent publication US20060030711A1 (priority 2004, published 2006).
Read-outs that look alike come from different tables or passages of the source.

Assays:
[1] = test system: tamoxifen-resistent MCF-7 breast cancer xenografts; settings: recent preclinical studies; cited from earlier work
[2] = test system: tamoxifen-sensitive cells lines; settings: other studies; cited from earlier work
[3] = test system: uterus; settings: tissue selective estrogenic effects; cited from earlier work
[4] = thermodynamic stability of polymorphs (DSC comparison); assay type: physicochemical
Protocol: Pipindoxifene hydrochloride monohydrate can also exist as form I polymorph. Sample data for certain physical properties are compared for form I and form II polymorphs below in Table 2.
DSC measurements were carried out in both sealed pan and vented pan at a scan rate of 10° C./min from 25° C. to 200° C. under nitrogen purge using a Pyris I DSC from Perkin-Elmer.

Cc1c(-c2ccc(O)cc2)n(Cc2ccc(OCCN3CCCCC3)cc2)c2ccc(O)cc12.Cl [pipindoxifene, 2-(4-hydroxyphenyl)-3-methyl-1-[4-(2-piperidin-1-ylethoxy)-benzyl]-1H-indol-5-ol hydrochloride]
growth of tamoxifen-resistant MCF-7 breast cancer xenografts [1]: inhibited the growth
effectiveness in tamoxifen-sensitive cell lines [2]: effectiveness
uterotropic activity [3]: little or no uterotropic activity

Cc1c(-c2ccc(O)cc2)n(Cc2ccc(OCCN3CCCCC3)cc2)c2ccc(O)cc12.Cl [form II, pipindoxifene hydrochloride monohydrate]
thermodynamic stability of crystalline polymorph [4]: Less thermodynamically stable

Cc1c(-c2ccc(O)cc2)n(Cc2ccc(OCCN3CCCCC3)cc2)c2ccc(O)cc12.Cl [Form I, pipindoxifene hydrochloride monohydrate]
thermodynamic stability of crystalline polymorph ([4]; form I versus form II, from Table 2 DSC data, hydrochloride monohydrate): thermodynamically more stable than form II
